Data taken from PMC2885048 (Molecular cancer therapeutics, 2010).

Tests used:
[1] = molecular target: muIDO1 (Mus musculus, UniProt P28776); assay: kynurenine assay in 293-T-REx cells expressing muIDO1; assay type: cell-based
[2] = molecular target: T1, muIDO2 (Mus musculus, UniProt Q8R0V5); assay: kynurenine assay in 293-T-REx cells expressing muIDO2; assay type: cell-based
T1 sequence (Q8R0V5 1-405): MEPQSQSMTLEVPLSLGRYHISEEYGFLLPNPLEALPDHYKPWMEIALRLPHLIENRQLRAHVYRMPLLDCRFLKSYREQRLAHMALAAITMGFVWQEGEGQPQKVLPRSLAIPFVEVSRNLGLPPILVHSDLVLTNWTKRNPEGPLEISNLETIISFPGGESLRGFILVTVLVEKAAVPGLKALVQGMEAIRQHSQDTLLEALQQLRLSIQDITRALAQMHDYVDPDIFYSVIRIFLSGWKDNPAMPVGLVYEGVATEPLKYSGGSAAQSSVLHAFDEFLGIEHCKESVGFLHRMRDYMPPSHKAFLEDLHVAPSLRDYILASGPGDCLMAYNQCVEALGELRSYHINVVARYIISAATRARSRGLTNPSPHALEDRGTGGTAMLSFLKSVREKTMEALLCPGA

Chain of muIDO1 (P28776 whole entry): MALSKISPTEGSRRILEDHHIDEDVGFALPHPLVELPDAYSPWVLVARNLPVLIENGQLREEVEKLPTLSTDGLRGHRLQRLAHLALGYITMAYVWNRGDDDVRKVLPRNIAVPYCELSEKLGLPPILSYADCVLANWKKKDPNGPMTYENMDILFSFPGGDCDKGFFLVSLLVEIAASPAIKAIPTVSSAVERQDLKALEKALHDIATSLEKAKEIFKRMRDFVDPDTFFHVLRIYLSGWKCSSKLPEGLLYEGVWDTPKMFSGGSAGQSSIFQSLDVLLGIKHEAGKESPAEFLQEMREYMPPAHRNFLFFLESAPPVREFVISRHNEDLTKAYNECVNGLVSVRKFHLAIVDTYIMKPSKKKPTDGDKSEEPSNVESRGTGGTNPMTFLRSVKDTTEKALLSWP

In the case of `C=CC1=C(C)C2=Cc3c(C=C)c(C)c4[n]3[Zn][n]3c(c(C)c(CCC(=O)O)c3=CC3=NC(=C4)C(C)=C3CCC(=O)O)=CC1=N2` [ZnPP], the IC50 [1] is reported as 3.3 µM and the IC50 [2] is reported as 7.1 µM.
